Where two headings read alike, the source gives them in different places.
Columns and labels:
P450 2C9 = P450 2C9 (Homo sapiens, UniProt P11712); test: P450 inhibition at 10 μM; format: in vitro ADME
P450 3A4 = P450 3A4 (Homo sapiens, UniProt P08684); test: P450 inhibition at 10 μM; format: in vitro ADME
[1] = Microsomal stability, rat liver microsomes; format: in vitro ADME; conditions: rat liver microsomes
PC-3 cells = test: In vitro migration (wound closure) assay in PC-3 cells; format: cell-based; conditions: Homo sapiens, PC-3, 24 hours, compared to the control, read-out: inhibition of migration of PC-3 cells
Description: PC3 cells were cultured to confluence at >90% in 6 well culture dishes in 10% FBS RPMI1640 media the day before the assay. Lines were drawn with a marker on the bottom of the dishes. Using a sterile 1 mL pipet tip, the dishes were scratched three separate wounds through the cells moving perpendicular to the line drawn in the step above. The cells were rinsed with PBS twice very gently and added the RPMI1640 media, and the dishes were taken pictures using phase contrast under Leica DMI3000B microscope.

HIV-1(NL4-3) [2] = test: microbe, parasite or virus in culture; format: cell-based
LRRK2 (G20195) = biological target: T1, LRRK2 (G20195) (Homo sapiens, UniProt Q5S007, G2019S); test: Kinase profiling at 1 μM (Reaction Biology); format: biochemical
T1 construct: purchased Reaction Biology Corporation
T1 sequence (Q5S007 970-2527 G2019S limits assumed): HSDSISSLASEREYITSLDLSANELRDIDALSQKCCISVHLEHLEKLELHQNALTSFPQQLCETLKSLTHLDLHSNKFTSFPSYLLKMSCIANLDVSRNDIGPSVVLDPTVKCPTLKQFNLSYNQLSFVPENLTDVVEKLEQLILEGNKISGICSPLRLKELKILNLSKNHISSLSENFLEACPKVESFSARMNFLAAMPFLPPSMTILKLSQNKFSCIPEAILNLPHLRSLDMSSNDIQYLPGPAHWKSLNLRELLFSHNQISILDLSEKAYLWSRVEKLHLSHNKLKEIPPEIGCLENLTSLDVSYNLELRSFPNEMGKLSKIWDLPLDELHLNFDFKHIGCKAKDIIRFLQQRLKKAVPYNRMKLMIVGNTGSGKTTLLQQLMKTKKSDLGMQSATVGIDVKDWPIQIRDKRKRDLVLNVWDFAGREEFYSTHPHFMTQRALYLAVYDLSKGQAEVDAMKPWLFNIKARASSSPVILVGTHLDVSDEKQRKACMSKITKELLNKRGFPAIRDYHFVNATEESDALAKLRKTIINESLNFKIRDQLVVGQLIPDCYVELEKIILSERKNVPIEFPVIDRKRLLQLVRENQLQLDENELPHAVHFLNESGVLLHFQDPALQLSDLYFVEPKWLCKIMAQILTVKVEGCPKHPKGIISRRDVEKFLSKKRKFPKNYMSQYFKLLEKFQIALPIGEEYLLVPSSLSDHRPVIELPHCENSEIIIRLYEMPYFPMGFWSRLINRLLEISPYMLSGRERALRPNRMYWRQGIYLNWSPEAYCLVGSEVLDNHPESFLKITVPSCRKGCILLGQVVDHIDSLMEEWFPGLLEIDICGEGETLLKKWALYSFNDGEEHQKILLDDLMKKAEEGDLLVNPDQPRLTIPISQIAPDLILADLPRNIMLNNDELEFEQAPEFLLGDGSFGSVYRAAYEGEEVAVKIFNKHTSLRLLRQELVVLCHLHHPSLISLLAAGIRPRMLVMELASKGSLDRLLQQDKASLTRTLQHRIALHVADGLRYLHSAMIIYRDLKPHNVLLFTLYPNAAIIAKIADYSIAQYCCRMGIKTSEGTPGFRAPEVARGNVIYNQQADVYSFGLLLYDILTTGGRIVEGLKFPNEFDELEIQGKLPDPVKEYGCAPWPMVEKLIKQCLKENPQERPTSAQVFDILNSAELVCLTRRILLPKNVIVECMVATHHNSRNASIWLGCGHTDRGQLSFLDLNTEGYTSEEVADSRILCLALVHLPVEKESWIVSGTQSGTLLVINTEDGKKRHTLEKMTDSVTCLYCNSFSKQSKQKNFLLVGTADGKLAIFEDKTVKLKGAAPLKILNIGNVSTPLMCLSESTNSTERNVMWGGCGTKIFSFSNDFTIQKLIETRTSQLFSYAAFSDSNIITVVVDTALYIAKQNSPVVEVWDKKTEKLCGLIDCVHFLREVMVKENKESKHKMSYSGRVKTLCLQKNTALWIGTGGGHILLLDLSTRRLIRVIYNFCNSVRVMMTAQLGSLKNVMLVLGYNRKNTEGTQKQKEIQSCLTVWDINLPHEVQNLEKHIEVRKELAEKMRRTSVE
Description: Profiling was carried out at Reaction Biology Corporation following a protocol described at its website: http://www.reactionbiology.com/webapps/site/. The % data were the average from two determinations. ATP concentration used: 10 μM; Staurosporine was used as the positive control.
Biochemical assays for all Limk inhibitors and kinase profiling were carried out in Reaction Biology Corporation and followed the protocols described on its website. […] Compounds were tested at 1 μM with duplicate experiments in profiling assays. […] Reactions were carried out at 10 μM ATP, 1 μM substrate cofilin, and 50 nM Limk1 (final concentrations).

resting CD4 T cells = test: SDF-1-mediated actin polymerization, FITC-phalloidin staining; format: cell-based, human; conditions: pre-treatment of resting CD4 T cells
Description: FIG. 10. Chemical and Biochemical characterization of R10015. a, Chemical structure of R10015 and its docking into the crystal structure of LIMK1 (PDB ID 3S95, Chain A). […] CEM-SS T cells treated with R10015 (100 μM) for a time course, and the phosphorylation of cofilin, LIMK, and PAK1/2 were measured by Western Blot. Levels of each protein or GAPDH were also measured for loading control. d, R10015 inhibits Jurkat T cell chemotaxis in responding to SDF-1. e, R10015. f, R10015 inhibits chemotactic actin activity. Resting CD4 T cells were treated with R10015, and then exposed to SDF-1 for a time course. Actin polymerization were measured by FITC-phalloidin staining. g, the relative intensity of F-actin staining was also plotted.
F-actin staining using phalloidin-FITC (Sigma) was carried out as described previously. Briefly, each staining was carried out using 1×10^6 cells. Cells were pelleted, fixed, and permeabilized with CytoPerm/Cytofix buffer (BD Biosciences) for 20 min at room temperature and washed with cold Perm/Wash buffer (BD Biosciences) twice, followed by staining with 5 μl of 0.3 mM FITC-labeled phalloidin (Sigma) for 30 min on ice in the dark. Cells were washed twice with cold Perm/Wash buffer, then were resuspended in 1% paraformaldehyde, and analyzed on a FACSCalibur (BD Biosciences).

[3] = system: HIV-1 viral entry in CEM-SS T cells; test: Viral entry assays (BlaM-Vpr, Nef-luciferase); format: cell-based; conditions: HIV-1 Vpr-β-lactamase or Nef-luciferase tagged virions
HIV-1(NL4-3) [4] = format: cell-based; conditions: non-toxic dosages
[5] = system: surface CD4 and CXCR4 on CEM-SS T cells; test: Surface staining of CD4 and CXCR4; format: cell-based, human
Description: FIG. 11. R10015 inhibits HIV-1 DNA synthesis, nuclear migration, and virion release. a, Effects of R10015 on surface CD4 and CXCR4 expression. […] CEM-SS T cells were treated with R10015, and then infected with BlaM-Vpr tagged HIV-1(NL4-3) or HIV-1(VSV-G) to measure viral entry. c. R10015 inhibits viral DNA synthesis. CEM-SS T cells were treated with R10015 for 1 hour, and then infected with a single-cycle HIV-1(Env) for 2 hours in the presence of R10015. Following infection, cells were washed to remove HIV-1 and R10015. Viral DNA synthesis was measured by real-time PCR. d. R10015 inhibits 2-LTR circle DNA formation. Cells were similar treated with R10015 and infected. 2-TLR circles were quantified by real-time PCR. e. R10015 inhibits virion release. Cells were infected with HIV-1(Env) for 2 hours, washed, incubated for 12 hours, and then treated with R10015. Virion release was quantified by measuring p24 in the supernatant.
Cells were stained with FITC-labeled monoclonal antibody against human CD4 (clone PRA-T4) or CXCR4 (clone 12G5) (BD Biosciences). Cells were stained on ice in PBS+0.1% BSA for 30 minutes, washed with cold PBS-0.5% BSA, and then analyzed on a FACSCalibur (BD Biosciences).

Rev-CEM-GFP-Luc = conditions: all concentrations tested (up to 200 μM)
Limk1 = Limk1 (Homo sapiens, UniProt P53667); test: Limk1 biochemical assay (Reaction Biology, 10-dose IC50); parameters: His; purchased Reaction Biology Corporation; host or cells: insect cells
Limk1, sequence (P53667 285-638): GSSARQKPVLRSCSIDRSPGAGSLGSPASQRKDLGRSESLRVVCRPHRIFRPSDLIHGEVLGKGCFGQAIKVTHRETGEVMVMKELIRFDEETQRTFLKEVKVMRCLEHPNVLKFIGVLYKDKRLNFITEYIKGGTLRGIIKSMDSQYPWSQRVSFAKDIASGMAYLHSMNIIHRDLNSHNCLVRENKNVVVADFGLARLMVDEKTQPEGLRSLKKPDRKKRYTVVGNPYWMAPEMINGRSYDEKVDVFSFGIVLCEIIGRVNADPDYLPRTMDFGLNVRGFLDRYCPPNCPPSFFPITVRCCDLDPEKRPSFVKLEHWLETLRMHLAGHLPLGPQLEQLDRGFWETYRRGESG

P450 2C9, sequence (P11712 whole entry): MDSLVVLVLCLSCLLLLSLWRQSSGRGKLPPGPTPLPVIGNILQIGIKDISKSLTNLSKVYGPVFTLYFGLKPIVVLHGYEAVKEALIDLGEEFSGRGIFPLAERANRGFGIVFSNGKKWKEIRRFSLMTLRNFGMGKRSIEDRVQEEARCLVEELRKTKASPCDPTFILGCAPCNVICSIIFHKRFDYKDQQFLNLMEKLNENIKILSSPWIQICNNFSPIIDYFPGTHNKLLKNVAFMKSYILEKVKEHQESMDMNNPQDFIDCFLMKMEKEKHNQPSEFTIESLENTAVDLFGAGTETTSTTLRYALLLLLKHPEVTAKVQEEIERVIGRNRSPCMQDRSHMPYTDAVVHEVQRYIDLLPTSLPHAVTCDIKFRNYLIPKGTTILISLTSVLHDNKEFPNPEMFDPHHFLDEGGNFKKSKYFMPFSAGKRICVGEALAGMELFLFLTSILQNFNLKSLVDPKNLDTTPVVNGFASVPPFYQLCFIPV
P450 3A4, sequence (P08684 whole entry): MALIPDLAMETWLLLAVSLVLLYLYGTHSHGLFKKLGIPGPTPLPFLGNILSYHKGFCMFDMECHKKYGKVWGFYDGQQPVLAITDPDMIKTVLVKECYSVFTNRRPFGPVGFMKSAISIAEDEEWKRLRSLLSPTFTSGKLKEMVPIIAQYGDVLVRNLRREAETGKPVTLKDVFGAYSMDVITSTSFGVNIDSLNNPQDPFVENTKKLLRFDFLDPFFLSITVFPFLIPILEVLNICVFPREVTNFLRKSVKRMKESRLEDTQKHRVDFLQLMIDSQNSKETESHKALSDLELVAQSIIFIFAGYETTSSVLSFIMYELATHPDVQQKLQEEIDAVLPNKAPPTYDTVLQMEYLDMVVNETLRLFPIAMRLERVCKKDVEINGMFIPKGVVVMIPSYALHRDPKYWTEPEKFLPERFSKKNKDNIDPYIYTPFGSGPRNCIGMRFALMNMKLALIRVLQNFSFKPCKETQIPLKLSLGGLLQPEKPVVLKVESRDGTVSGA

SMILES | P450 % inh. at 10 μM 2C9 (P450 2C9) | P450 % inh. at 10 μM 3A4 (P450 3A4) | Microsomal Stability t1/2 (min) Rat [1] | inhibition at 0.1 µM (PC-3 cells; 0.1 μM) | inhibition at 1 µM (PC-3 cells; 1 μM) | inhibition at 10 µM (PC-3 cells; 10 μM) | X4 HIV infection (screen) (HIV-1(NL4-3) [2]) | inhibition at 1 µM (LRRK2 (G20195); kinase panel) | IC50 (HIV-1(NL4-3) [2]; Human immunodeficiency virus 1, NL43, T-cell, read-out: half maximal inhibition concentration (IC50) for inhibiting HIV infection) | X4 HIV infection (screen) (HIV-1(NL4-3) [2]; […], dosages with no detectable cytotoxicity) | SDF-1-mediated actin polymerization (resting CD4 T cells) | viral entry [3] | X4 viral infection of blood resting CD4 T cells (HIV-1(NL4-3) [4]) | surface expression of CD4 and CXCR4 ([5]; 1 hour treatment) | surface density of CD4 ([5]; prolonged treatment (4 hours)) | activity at 1 µM (LRRK2 (G20195); ATP 10 μM) | cytotoxicity (Rev-CEM-GFP-Luc) | IC50 (Limk1; Table 8, read-out: LIMK1 IC50) | IC50 (Limk1; read-out: Limk1 IC50)
Cc1c[nH]c2ncnc(-c3ccc(NC(=O)N(CCO)c4ccccc4)cc3)c12 [Compound 18b, 1-(2-Hydroxyethyl)-3-(4-(5-methyl-7H-pyrrolo[2,3-d]pyrimidin-4-yl)phenyl)-1-phenylurea] | 14% | 13% | 30 min | 16.5% | 74% | 77.5% | blocked | > 50% | – | – | – | – | – | – | – | – | – | – | –
COC(=O)c1ccc2[nH]c(C3CCN(c4ncnc5[nH]cc(Cl)c45)CC3)nc2c1 [Compound R10015, Methyl 2-(1-(5-chloro-7H-pyrrolo[2,3-d]pyrimidin-4-yl)piperidin-4-yl)-1Hbenzo[d]imidazole-5-carboxylate] | – | – | – | – | – | – | – | – | 14900 nM | blocked | markedly depressed | did not significantly inhibit | inhibition | did not alter | slightly decreased | 6.7% | no detectable cytotoxicity | 38 ± 5 nM | ~38 nM
